Data taken from the kinase profiling compilation of Christmann-Franck et al. (2016).

Columns and labels:
Test in all cases: KINOMEscan competition binding
Conditions in all cases: compound 10.0 µM
ACVR1B (human) = ACVR1B (human) (UniProt P36896)
BMPR1B (human) = BMPR1B (human) (UniProt O00238)
BRSK1 (human) = BRSK1 (human) (UniProt Q8TDC3)
CAMK4 (human) = CAMK4 (human) (UniProt Q16566)
CAMKK1 (human) = CAMKK1 (human) (UniProt Q8N5S9)
CLK4 (human) = CLK4 (human) (UniProt Q9HAZ1)
DAPK3 (human) = DAPK3 (human) (UniProt O43293)
DDR2 (human) = DDR2 (human) (UniProt Q16832)
EPHA2 (human) = EPHA2 (human) (UniProt P29317)
FER (human) = FER (human) (UniProt P16591)
FES (human) = FES (human) (UniProt P07332)
FLT4 (human) = FLT4 (human) (UniProt P35916)
IGF1R (human) = IGF1R (human) (UniProt P08069)
MAP2K3 (human) = MAP2K3 (human) (UniProt P46734)
MAP4K4 (human) = MAP4K4 (human) (UniProt O95819)
MAPK14 (human) = MAPK14 (human) (UniProt Q16539)
MAPK7 (human) = MAPK7 (human) (UniProt Q13164)
MET (human) = MET (human) (UniProt P08581)
NEK2 (human) = NEK2 (human) (UniProt P51955)
NLK (human) = NLK (human) (UniProt Q9UBE8)
NUAK2 (human) = NUAK2 (human) (UniProt Q9H093)
PAK6 (human) = PAK6 (human) (UniProt Q9NQU5)
PDGFRA (human) = PDGFRA (human) (UniProt P16234)
PHKG1 (human) = PHKG1 (human) (UniProt Q16816)
PIM2 (human) = PIM2 (human) (UniProt Q9P1W9)
PKN2 (human) = PKN2 (human) (UniProt Q16513)
RET (human) = RET (human) (UniProt P07949)
RIOK1 (human) = RIOK1 (human) (UniProt Q9BRS2)
RPS6KA1 KD1 (human) = RPS6KA1 KD1 (human) (UniProt Q15418)
RPS6KA6 KD1 (human) = RPS6KA6 KD1 (human) (UniProt Q9UK32)
STK10 (human) = STK10 (human) (UniProt O94804)
TGFBR1 (human) = TGFBR1 (human) (UniProt P36897)
BMPR1A (human) = BMPR1A (human) (UniProt P36894)
FGFR2 (human) = FGFR2 (human) (UniProt P21802)
TAOK3 (human) = TAOK3 (human) (UniProt Q9H2K8)
ULK1 (human) = ULK1 (human) (UniProt O75385)

Sequence of BRSK1 (human) (Q8TDC3 whole entry, looked up): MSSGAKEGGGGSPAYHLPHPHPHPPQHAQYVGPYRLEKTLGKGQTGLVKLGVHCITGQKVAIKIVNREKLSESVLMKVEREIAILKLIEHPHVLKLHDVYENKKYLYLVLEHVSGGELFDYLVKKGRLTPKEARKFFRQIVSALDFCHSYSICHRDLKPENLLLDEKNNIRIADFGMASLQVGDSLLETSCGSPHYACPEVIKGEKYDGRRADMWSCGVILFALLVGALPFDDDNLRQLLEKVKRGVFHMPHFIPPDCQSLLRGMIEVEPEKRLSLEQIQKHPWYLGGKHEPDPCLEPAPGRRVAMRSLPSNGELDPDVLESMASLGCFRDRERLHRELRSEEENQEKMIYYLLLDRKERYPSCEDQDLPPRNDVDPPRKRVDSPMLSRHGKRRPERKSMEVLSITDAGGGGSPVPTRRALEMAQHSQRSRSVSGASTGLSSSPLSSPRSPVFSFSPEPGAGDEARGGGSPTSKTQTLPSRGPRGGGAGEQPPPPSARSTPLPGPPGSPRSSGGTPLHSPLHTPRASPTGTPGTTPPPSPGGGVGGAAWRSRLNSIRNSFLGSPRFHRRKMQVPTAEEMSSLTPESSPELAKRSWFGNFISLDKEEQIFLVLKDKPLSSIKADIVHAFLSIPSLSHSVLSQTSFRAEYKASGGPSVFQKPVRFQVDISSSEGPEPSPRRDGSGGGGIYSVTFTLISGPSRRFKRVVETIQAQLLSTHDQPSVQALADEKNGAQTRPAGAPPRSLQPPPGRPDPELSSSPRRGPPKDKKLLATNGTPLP
Sequence of EPHA2 (human) (P29317 whole entry, looked up): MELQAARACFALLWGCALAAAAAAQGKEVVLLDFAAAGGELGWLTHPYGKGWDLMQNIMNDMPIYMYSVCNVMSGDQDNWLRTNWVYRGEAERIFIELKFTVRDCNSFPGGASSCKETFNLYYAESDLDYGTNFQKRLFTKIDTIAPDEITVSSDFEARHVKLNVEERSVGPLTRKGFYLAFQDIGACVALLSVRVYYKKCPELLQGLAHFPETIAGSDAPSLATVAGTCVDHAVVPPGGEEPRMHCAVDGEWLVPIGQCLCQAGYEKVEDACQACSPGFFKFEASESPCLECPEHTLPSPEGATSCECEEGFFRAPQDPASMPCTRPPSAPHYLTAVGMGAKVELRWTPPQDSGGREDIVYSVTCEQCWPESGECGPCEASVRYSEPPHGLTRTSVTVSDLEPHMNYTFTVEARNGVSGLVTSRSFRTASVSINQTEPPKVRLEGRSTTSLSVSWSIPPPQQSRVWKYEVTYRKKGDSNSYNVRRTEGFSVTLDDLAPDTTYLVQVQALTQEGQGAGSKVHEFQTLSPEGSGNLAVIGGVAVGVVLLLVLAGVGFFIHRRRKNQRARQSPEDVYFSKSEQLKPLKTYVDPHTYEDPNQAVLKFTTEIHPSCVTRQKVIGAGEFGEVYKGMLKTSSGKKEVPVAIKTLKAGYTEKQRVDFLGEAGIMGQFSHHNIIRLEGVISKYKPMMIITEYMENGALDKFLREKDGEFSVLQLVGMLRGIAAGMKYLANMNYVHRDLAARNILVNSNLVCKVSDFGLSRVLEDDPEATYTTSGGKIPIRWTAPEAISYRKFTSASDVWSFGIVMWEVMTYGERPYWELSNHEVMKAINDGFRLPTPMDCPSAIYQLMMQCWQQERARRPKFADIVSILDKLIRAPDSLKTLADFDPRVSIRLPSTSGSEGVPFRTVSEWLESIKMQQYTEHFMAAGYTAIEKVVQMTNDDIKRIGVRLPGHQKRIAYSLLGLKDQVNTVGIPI
Sequence of CAMK4 (human) (Q16566 whole entry, looked up): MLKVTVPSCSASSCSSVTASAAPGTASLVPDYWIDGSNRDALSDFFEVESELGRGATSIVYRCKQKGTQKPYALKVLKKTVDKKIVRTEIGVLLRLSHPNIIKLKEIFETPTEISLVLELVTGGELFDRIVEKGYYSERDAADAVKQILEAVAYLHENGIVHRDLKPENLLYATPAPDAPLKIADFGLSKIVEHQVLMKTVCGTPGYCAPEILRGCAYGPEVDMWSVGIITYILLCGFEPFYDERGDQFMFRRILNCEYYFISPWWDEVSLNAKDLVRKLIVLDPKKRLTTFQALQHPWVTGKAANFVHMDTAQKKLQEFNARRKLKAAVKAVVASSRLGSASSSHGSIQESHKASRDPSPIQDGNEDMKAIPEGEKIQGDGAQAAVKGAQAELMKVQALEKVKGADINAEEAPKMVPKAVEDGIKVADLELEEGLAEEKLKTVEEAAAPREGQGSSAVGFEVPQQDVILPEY
Sequence of NEK2 (human) (P51955 whole entry, looked up): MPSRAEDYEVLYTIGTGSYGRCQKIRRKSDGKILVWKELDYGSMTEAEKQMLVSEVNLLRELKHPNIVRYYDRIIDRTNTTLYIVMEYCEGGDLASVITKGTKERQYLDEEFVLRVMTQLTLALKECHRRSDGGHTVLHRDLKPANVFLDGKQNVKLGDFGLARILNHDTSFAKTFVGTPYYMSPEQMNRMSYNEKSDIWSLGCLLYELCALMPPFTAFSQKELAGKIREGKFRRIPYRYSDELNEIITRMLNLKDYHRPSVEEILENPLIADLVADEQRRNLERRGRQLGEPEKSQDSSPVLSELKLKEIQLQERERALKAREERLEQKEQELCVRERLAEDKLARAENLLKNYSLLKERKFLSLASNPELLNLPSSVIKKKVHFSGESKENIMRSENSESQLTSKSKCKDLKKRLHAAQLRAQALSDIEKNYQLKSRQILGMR
Sequence of BMPR1B (human) (O00238 whole entry, looked up): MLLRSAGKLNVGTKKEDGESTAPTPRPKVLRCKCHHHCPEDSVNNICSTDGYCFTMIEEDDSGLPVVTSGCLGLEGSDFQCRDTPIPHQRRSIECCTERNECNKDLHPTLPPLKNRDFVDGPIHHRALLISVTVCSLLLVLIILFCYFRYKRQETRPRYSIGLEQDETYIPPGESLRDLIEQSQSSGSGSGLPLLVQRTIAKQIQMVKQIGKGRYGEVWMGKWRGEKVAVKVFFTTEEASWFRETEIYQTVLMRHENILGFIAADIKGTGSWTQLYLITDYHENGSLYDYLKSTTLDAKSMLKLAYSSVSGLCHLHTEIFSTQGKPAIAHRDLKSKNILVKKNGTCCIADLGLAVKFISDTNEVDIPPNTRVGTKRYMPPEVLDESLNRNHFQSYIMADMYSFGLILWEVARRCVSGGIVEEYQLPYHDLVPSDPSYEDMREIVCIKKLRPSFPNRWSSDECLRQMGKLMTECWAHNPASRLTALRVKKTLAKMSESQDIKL
Sequence of MET (human) (P08581 whole entry, looked up): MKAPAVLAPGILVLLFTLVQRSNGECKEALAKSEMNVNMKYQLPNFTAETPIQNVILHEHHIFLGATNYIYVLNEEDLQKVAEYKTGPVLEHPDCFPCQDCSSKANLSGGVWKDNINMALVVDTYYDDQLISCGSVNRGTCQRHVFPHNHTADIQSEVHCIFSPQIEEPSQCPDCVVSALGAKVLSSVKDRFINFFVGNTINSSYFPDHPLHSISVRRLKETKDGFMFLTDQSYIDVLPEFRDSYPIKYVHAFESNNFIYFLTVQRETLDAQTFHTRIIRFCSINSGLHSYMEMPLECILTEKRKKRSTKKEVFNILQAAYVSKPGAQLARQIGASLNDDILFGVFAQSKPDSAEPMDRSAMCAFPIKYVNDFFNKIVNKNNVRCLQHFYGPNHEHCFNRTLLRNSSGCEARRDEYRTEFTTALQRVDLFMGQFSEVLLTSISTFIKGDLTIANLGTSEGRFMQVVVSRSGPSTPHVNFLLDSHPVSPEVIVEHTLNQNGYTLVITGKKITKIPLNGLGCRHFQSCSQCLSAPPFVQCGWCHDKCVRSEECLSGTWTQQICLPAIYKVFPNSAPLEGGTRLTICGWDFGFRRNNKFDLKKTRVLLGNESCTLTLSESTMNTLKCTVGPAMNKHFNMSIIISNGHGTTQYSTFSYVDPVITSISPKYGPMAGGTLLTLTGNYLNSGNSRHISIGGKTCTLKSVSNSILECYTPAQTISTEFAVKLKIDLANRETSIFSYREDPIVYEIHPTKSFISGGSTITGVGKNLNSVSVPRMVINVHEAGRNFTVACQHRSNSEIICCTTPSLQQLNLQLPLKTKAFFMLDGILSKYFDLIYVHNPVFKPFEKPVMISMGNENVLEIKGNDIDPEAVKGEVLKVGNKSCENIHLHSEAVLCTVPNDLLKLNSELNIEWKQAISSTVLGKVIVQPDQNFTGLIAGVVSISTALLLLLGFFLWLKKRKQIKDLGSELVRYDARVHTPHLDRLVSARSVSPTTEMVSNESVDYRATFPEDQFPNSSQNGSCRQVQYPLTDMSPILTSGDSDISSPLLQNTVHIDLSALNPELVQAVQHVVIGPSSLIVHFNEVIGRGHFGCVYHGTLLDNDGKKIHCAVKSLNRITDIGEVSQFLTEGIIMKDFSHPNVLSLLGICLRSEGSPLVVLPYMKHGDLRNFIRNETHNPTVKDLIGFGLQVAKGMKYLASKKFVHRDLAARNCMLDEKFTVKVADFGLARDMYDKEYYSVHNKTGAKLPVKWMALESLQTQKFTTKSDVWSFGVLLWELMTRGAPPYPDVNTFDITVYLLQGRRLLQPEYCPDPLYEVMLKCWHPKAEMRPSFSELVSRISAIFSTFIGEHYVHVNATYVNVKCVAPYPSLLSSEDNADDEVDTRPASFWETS
Sequence of DAPK3 (human) (O43293 whole entry, looked up): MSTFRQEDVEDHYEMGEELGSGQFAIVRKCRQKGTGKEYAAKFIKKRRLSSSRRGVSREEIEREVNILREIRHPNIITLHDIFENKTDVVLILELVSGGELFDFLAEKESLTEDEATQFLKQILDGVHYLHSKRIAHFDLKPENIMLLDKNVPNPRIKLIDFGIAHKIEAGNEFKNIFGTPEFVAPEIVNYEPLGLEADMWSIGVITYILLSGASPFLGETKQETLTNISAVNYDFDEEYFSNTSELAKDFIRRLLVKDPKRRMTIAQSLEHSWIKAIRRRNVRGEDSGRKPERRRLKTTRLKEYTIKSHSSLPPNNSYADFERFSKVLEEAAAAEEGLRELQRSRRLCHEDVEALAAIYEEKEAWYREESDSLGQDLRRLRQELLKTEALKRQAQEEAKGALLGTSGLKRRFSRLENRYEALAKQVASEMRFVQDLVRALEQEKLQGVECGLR

SMILES	kinase still bound, per cent of control (ACVR1B (human)) [%]	kinase still bound, per cent of control (BMPR1B (human)) [%]	kinase still bound, per cent of control (BRSK1 (human)) [%]	kinase still bound, per cent of control (CAMK4 (human)) [%]	kinase still bound, per cent of control (CAMKK1 (human)) [%]	kinase still bound, per cent of control (CLK4 (human)) [%]	kinase still bound, per cent of control (DAPK3 (human)) [%]	kinase still bound, per cent of control (DDR2 (human)) [%]	kinase still bound, per cent of control (EPHA2 (human)) [%]	kinase still bound, per cent of control (FER (human)) [%]	kinase still bound, per cent of control (FES (human)) [%]	kinase still bound, per cent of control (FLT4 (human)) [%]	kinase still bound, per cent of control (IGF1R (human)) [%]	kinase still bound, per cent of control (MAP2K3 (human)) [%]	kinase still bound, per cent of control (MAP4K4 (human)) [%]	kinase still bound, per cent of control (MAPK14 (human)) [%]	kinase still bound, per cent of control (MAPK7 (human)) [%]	kinase still bound, per cent of control (MET (human)) [%]	kinase still bound, per cent of control (NEK2 (human)) [%]	kinase still bound, per cent of control (NLK (human)) [%]	other results
CCN(CC)CCCCNc1ncc2cc(-c3cc(OC)cc(OC)c3)c(NC(=O)NC(C)(C)C)nc2n1	100	100	100	100	100	100	100	100	100	100	100	6	100	100	100	100	36	100	100	100	kinase still bound, per cent of control (NUAK2 (human)): 100%; kinase still bound, per cent of control (PAK6 (human)): 100%; kinase still bound, per cent of control (PDGFRA (human)): 100%; kinase still bound, per cent of control (PHKG1 (human)): 100%; kinase still bound, per cent of control (PIM2 (human)): 100%; kinase still bound, per cent of control (PKN2 (human)): 100%; kinase still bound, per cent of control (RET (human)): 26%; kinase still bound, per cent of control (RIOK1 (human)): 100%; kinase still bound, per cent of control (RPS6KA1 KD1 (human)): 100%; kinase still bound, per cent of control (RPS6KA6 KD1 (human)): 100%; kinase still bound, per cent of control (STK10 (human)): 100%; kinase still bound, per cent of control (TGFBR1 (human)): 100%
Cc1n[nH]c2ccc(-c3cncc(OC[C@@H](N)Cc4c[nH]c5ccccc45)c3)cc12	100	100	100	12	2.4	2.6	2.3	100	100	100	100	100	100	7.1	2.2	100	100	100	100	100	kinase still bound, per cent of control (BMPR1A (human)): 100%; kinase still bound, per cent of control (FGFR2 (human)): 100%; kinase still bound, per cent of control (NUAK2 (human)): 1.9%; kinase still bound, per cent of control (PAK6 (human)): 16%; kinase still bound, per cent of control (PDGFRA (human)): 100%; kinase still bound, per cent of control (PHKG1 (human)): 8%; kinase still bound, per cent of control (PIM2 (human)): 1.2%; kinase still bound, per cent of control (PKN2 (human)): 2.4%; kinase still bound, per cent of control (RET (human)): 100%; kinase still bound, per cent of control (RIOK1 (human)): 2.8%; kinase still bound, per cent of control (RPS6KA1 KD1 (human)): 100%; kinase still bound, per cent of control (RPS6KA6 KD1 (human)): 100%; kinase still bound, per cent of control (STK10 (human)): 100%; kinase still bound, per cent of control (TAOK3 (human)): 0.1%; kinase still bound, per cent of control (TGFBR1 (human)): 100%; kinase still bound, per cent of control (ULK1 (human)): 22%
CNC(=O)c1ccc(Nc2cc(Nc3ccccc3S(=O)(=O)C(C)C)c3cc[nH]c3n2)nc1	100	3.4	100	100	100	0.35	100	100	100	1.1	12	29	2.2	10	31	100	100	1	100	100	kinase still bound, per cent of control (BMPR1A (human)): 100%; kinase still bound, per cent of control (FGFR2 (human)): 25%; kinase still bound, per cent of control (NUAK2 (human)): 0.4%; kinase still bound, per cent of control (PAK6 (human)): 100%; kinase still bound, per cent of control (PDGFRA (human)): 100%; kinase still bound, per cent of control (PHKG1 (human)): 100%; kinase still bound, per cent of control (PIM2 (human)): 100%; kinase still bound, per cent of control (PKN2 (human)): 5.4%; kinase still bound, per cent of control (RET (human)): 3.8%; kinase still bound, per cent of control (RIOK1 (human)): 2%; kinase still bound, per cent of control (RPS6KA1 KD1 (human)): 0.8%; kinase still bound, per cent of control (RPS6KA6 KD1 (human)): 29%; kinase still bound, per cent of control (STK10 (human)): 0%; kinase still bound, per cent of control (TAOK3 (human)): 2%; kinase still bound, per cent of control (TGFBR1 (human)): 100%; kinase still bound, per cent of control (ULK1 (human)): 7.2%
